Source: patent US20100285959A1, “HERBICIDAL MIXTURES” (priority 2006, published 2010)

Tests used:
velvetleaf (ABUTH) [1] = test: Test 16 greenhouse, post- and preemergence; settings: 15 DAA
velvetleaf (ABUTH) [2] = test: Test 18 greenhouse, post- and preemergence; settings: 15 DAA
velvetleaf (ABUTH) [3] = test: Test 17 greenhouse, post- and preemergence; format: in vivo, Abutilon theophrasti; settings: 12 DAA
Source text: Plants were watered as needed.

flint corn (ZEAMI) = test: Test 12 field trial, preemergence; format: in vivo, Zea mays L. ssp. indurata; settings: Cpd 2 or Cpd 1 62 g a.i./ha, Diuron 2000 g a.i./ha
Source text: (§1) In early-mid spring season, corn seeds (hybrid ‘Pioneer 3041’) were planted 5 cm deep and sugarcane nodes (variety RB-72.454) were planted 10 cm deep in separate plots in a clay soil having 2.6% organic matter and a pH of 5.6. Plots were 24 m long by 1.5 m wide with rows spaced 80 cm (corn) or 140 cm (sugarcane) apart. Corn seeds were spaced 15 cm apart and sugarcane nodes were spaced 10 cm apart within the rows. At the same time, weed seeds were broadcast over the surface of separate plots without a crop, one weed species per plot. The weed plots were rotary tilled to incorporate the weed seeds to a variety of depths. The field was managed using conventional tillage practices.

common sugarcane (SACOF) = test: Test 12 field trial, preemergence; format: in vivo, Saccharum officinarum; settings: Cpd 2 or Cpd 1 62 g a.i./ha, Diuron 2000 g a.i./ha
Source text: as §1

slender amaranth (AMAVI) = test: Test 12 field trial, preemergence; format: in vivo, Amaranthus viridis; settings: Cpd 2 or Cpd 1 62 g a.i./ha, Diuron 2000 g a.i./ha
Source text: as §1

common blackjack (BIDPI) = test: Test 12 field trial, preemergence; format: in vivo, Bidens pilosa; settings: Cpd 2 or Cpd 1 62 g a.i./ha, Diuron 2000 g a.i./ha
Source text: as §1

[4] = system: broadleaf buttonweed (BOILF); test: Test 12 field trial, preemergence; format: in vivo, Borreria latifolia; settings: Cpd 2 or Cpd 1 62 g a.i./ha, Diuron 2000 g a.i./ha
Source text: as §1

sicklepod (CASOB) = test: Test 12 field trial, preemergence; format: in vivo, Cassia obtusifolia; settings: Cpd 2 or Cpd 1 62 g a.i./ha, Diuron 2000 g a.i./ha
Source text: as §1

[5] = system: tropical spiderwort (COMBE); test: Test 12 field trial, preemergence; format: in vivo, Commelina benghalensis; settings: Cpd 2 or Cpd 1 62 g a.i./ha, Diuron 2000 g a.i./ha
Source text: as §1

[6] = system: Florida beggarweed (DEDTO); test: Test 12 field trial, preemergence; format: in vivo, Desmodium tortuosum; settings: Cpd 2 or Cpd 1 62 g a.i./ha, Diuron 2000 g a.i./ha
Source text: as §1

wild poinsettia (EPHHL) = test: Test 12 field trial, preemergence; format: in vivo, Euphorbia heterophylla; settings: Cpd 2 or Cpd 1 62 g a.i./ha, Diuron 2000 g a.i./ha
Source text: as §1

[7] = system: Ipomoea grandiflora (IPOGF); test: Test 12 field trial, preemergence; format: in vivo; settings: Cpd 2 or Cpd 1 62 g a.i./ha, Diuron 2000 g a.i./ha
Source text: as §1

wild spikenard (HPYSU) = test: Test 12 field trial, preemergence; format: in vivo; settings: Cpd 2 or Cpd 1 62 g a.i./ha, Diuron 2000 g a.i./ha
Source text: as §1

common purslane (POROL) = test: Test 12 field trial, preemergence; format: in vivo, Portulaca oleracea; settings: Cpd 2 or Cpd 1 62 g a.i./ha, Diuron 2000 g a.i./ha
Source text: as §1

arrowleaf sida (SIDRH) = test: Test 12 field trial, preemergence; format: in vivo, Sida rhombifolia; settings: Cpd 2 or Cpd 1 62 g a.i./ha, Diuron 2000 g a.i./ha
Source text: as §1

[8] = system: Italian cocklebur (XANSI); test: Test 12 field trial, preemergence; format: in vivo, Xanthium strumarium ssp. italicum; settings: Cpd 2 or Cpd 1 62 g a.i./ha, Diuron 2000 g a.i./ha
Source text: as §1

SMILES: O=C(O)c1cc(Oc2ccc(C(F)(F)F)cc2Cl)ccc1[N+](=O)[O-] [Acifluorfen]
- Obs response, scale 0 to 100 (velvetleaf (ABUTH) [1]; Postemergence, 7.5 g a.i./ha): 0
- Obs response, scale 0 to 100 (velvetleaf (ABUTH) [1]; Postemergence, 15 g a.i./ha): 0
- Obs response, scale 0 to 100 (velvetleaf (ABUTH) [1]; Postemergence, 30 g a.i./ha): 0
- Obs response, scale 0 to 100 (velvetleaf (ABUTH) [1]; Preemergence, 7.5 g a.i./ha): 0
- Obs response, scale 0 to 100 (velvetleaf (ABUTH) [1]; Preemergence, 15 g a.i./ha): 2
- Obs response, scale 0 to 100 (velvetleaf (ABUTH) [1]; Preemergence, 30 g a.i./ha): 2

SMILES: C#CCOc1cc(-n2nc3n(c2=O)CCCC3)c(Cl)cc1Cl [Azafenidin]
- Postemergence ABUTH Obs (velvetleaf (ABUTH) [2]; alone at 7.5 g a.i./ha): 46
- Preemergence ABUTH Obs (velvetleaf (ABUTH) [2]; alone at 7.5 g a.i./ha): 18
- Postemergence ABUTH Obs (velvetleaf (ABUTH) [2]; alone at 15 g a.i./ha): 73
- Preemergence ABUTH Obs (velvetleaf (ABUTH) [2]; alone at 15 g a.i./ha): 35
- Postemergence ABUTH Obs (velvetleaf (ABUTH) [2]; alone at 30 g a.i./ha): 81
- Preemergence ABUTH Obs (velvetleaf (ABUTH) [2]; alone at 30 g a.i./ha): 67
- Postemergence ABUTH Obs (velvetleaf (ABUTH) [2]; alone at 45 g a.i./ha): 86
- Preemergence ABUTH Obs (velvetleaf (ABUTH) [2]; alone at 45 g a.i./ha): 68

SMILES: Cc1nn(-c2cc(CC(Cl)C(=O)O)c(Cl)cc2F)c(=O)n1C(F)F (stereo not shown) [Carfentrazone]
- Obs response, scale 0 to 100 (velvetleaf (ABUTH) [3]; Postemergence, 7.5 g a.i./ha): 70
- Obs response, scale 0 to 100 (velvetleaf (ABUTH) [3]; Postemergence, 15 g a.i./ha): 79
- Obs response, scale 0 to 100 (velvetleaf (ABUTH) [3]; Postemergence, 30 g a.i./ha): 82
- Obs response, scale 0 to 100 (velvetleaf (ABUTH) [3]; Preemergence, 7.5 g a.i./ha): 4
- Obs response, scale 0 to 100 (velvetleaf (ABUTH) [3]; Preemergence, 15 g a.i./ha): 8
- Obs response, scale 0 to 100 (velvetleaf (ABUTH) [3]; Preemergence, 30 g a.i./ha): 8

SMILES: CN(C)C(=O)Nc1ccc(Cl)c(Cl)c1 [Diuron]
- ZEAMI Obs (flint corn (ZEAMI); 15 DAA): 20%
- ZEAMI Obs (flint corn (ZEAMI); 29 DAA): 20%
- ZEAMI Obs (flint corn (ZEAMI); 48 DAA): 20%
- ZEAMI Obs (flint corn (ZEAMI); 61 DAA): 25%
- SACOF Obs (common sugarcane (SACOF); 15 DAA): 0
- SACOF Obs (common sugarcane (SACOF); 29 DAA): 0
- SACOF Obs (common sugarcane (SACOF); 48 DAA): 0
- SACOF Obs (common sugarcane (SACOF); 61 DAA): 5
- AMAVI Obs (slender amaranth (AMAVI); 15 DAA): 100
- AMAVI Obs (slender amaranth (AMAVI); 29 DAA): 100
- AMAVI Obs (slender amaranth (AMAVI); 48 DAA): 100
- AMAVI Obs (slender amaranth (AMAVI); 61 DAA): 100
- BIDPI Obs (common blackjack (BIDPI); 15 DAA): 100
- BIDPI Obs (common blackjack (BIDPI); 29 DAA): 100
- BIDPI Obs (common blackjack (BIDPI); 48 DAA): 100
- BIDPI Obs (common blackjack (BIDPI); 61 DAA): 100
- BOILF Obs ([4]; 15 DAA): 99
- BOILF Obs ([4]; 29 DAA): 100
- BOILF Obs ([4]; 48 DAA): 100
- BOILF Obs ([4]; 61 DAA): 95
- CASOB Obs (sicklepod (CASOB); 15 DAA): 90
- CASOB Obs (sicklepod (CASOB); 29 DAA): 90
- CASOB Obs (sicklepod (CASOB); 48 DAA): 60
- CASOB Obs (sicklepod (CASOB); 61 DAA): 40
- COMBE Obs ([5]; 15 DAA): 99
- COMBE Obs ([5]; 29 DAA): 100
- COMBE Obs ([5]; 48 DAA): 100
- COMBE Obs ([5]; 61 DAA): 100
- DEDTO Obs ([6]; 15 DAA): 100
- DEDTO Obs ([6]; 29 DAA): 100
- DEDTO Obs ([6]; 48 DAA): 100
- DEDTO Obs ([6]; 61 DAA): 95
- EPHHL Obs (wild poinsettia (EPHHL); 15 DAA): 60
- EPHHL Obs (wild poinsettia (EPHHL); 29 DAA): 40
- EPHHL Obs (wild poinsettia (EPHHL); 48 DAA): 20
- EPHHL Obs (wild poinsettia (EPHHL); 61 DAA): 40
- IPOGF Obs ([7]; 15 DAA): 80
- IPOGF Obs ([7]; 29 DAA): 80
- IPOGF Obs ([7]; 48 DAA): 40
- IPOGF Obs ([7]; 61 DAA): 40
- HPYSU Obs (wild spikenard (HPYSU); 15 DAA): 75
- HPYSU Obs (wild spikenard (HPYSU); 29 DAA): 60
- HPYSU Obs (wild spikenard (HPYSU); 48 DAA): 40
- HPYSU Obs (wild spikenard (HPYSU); 61 DAA): 20
- POROL Obs (common purslane (POROL); 15 DAA): 100
- POROL Obs (common purslane (POROL); 29 DAA): 100
- POROL Obs (common purslane (POROL); 48 DAA): 100
- POROL Obs (common purslane (POROL); 61 DAA): 100
- SIDRH Obs (arrowleaf sida (SIDRH); 15 DAA): 100
- SIDRH Obs (arrowleaf sida (SIDRH); 29 DAA): 100
- SIDRH Obs (arrowleaf sida (SIDRH); 48 DAA): 100
- SIDRH Obs (arrowleaf sida (SIDRH); 61 DAA): 100
- XANSI Obs ([8]; 15 DAA): 60
- XANSI Obs ([8]; 29 DAA): 40
- XANSI Obs ([8]; 48 DAA): 40
- XANSI Obs ([8]; 61 DAA): 40
